Experimental data as given in US10144715B2, “Piperazine derivatives as liver X receptor modulators” (priority 2014, dated 2018).
Like-named read-outs stand apart in the source and are kept apart here.

Legend:
LXR α LBD protein [1] = biological target: T1, LXR α LBD protein (Homo sapiens (Human), UniProt Q13133); experiment: LXR α radioligand binding assay (SPA, competition with [3H]TO901317); details: read-out: LXRα Binding Ki
LXR β LBD protein [2] = biological target: T2, LXR β LBD protein (Homo sapiens (Human), UniProt P55055); experiment: biochemical; format: binding; details: read-out: LXRβ Binding Ki
Target sequence in this assay (P55055 222-460 limits assumed): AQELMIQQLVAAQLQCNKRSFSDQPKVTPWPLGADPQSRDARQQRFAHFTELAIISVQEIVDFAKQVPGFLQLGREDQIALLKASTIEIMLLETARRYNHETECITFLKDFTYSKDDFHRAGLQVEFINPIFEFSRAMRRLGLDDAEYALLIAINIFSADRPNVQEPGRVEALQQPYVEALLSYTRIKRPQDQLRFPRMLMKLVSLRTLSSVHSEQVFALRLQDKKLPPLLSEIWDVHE

[3] = biological target: T3, Gal4 DNA binding domain fused to the LBD of LXRα in HEK293 cells (Homo sapiens (Human), UniProt Q13133); experiment: LXR luciferase transcriptional reporter gene assay, agonist mode, LXRα; format: cell-based; details: for EC50: read-out: Cell LXRα EC50
[4] = biological target: T4, Gal4 DNA binding domain fused to the LBD of LXRβ in HEK293 cells (Homo sapiens (Human), UniProt P55055); experiment: cell-based
[5] = biological target: T3, Gal4 DNA binding domain fused to the LBD of LXRα in HEK293 cells; experiment: LXR luciferase transcriptional reporter gene assay, antagonist mode (200 nM T0901317), LXRα; format: cell-based; details: for IC50: read-out: Cell LXRα IC50
[6] = biological target: T4, Gal4 DNA binding domain fused to the LBD of LXRβ in HEK293 cells; experiment: cell-based; format: cell-based
LXR α LBD protein [7] = biological target: T1, LXR α LBD protein; experiment: Human LXRα coactivator recruitment FRET assay, agonist mode; format: biochemical; details: agonist mode
Outline: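 LXRα- or LXRβ-LBD at 10 nM (2×) mixed with compound in DMSO, then fluorescein-SRC2-3 peptide 200 nM and Tb-anti-GST antibody 20 nM (4×) added; 2 h at rt. Time-resolved FRET read, 100 µs delay, 200 µs window; EC50 from four-parameter fit of percent control.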

LXR β LBD protein [8] = biological target: T2, LXR β LBD protein; experiment: biochemical; format: biochemical
Target sequence in this assay (P55055 222-460): as the sequence (P55055 222-460 limits assumed) above

[9] = antagonist mode, 200 nM T0901317, HEK293 reporter gene assay
[10] = Biological Test Example 2, agonist mode
[11] = Biological Test Example 2, agonist mode, read-out: Cell LXRβ EC50
[12] = antagonist mode, 200 nM T0901317, HEK293 reporter gene assay, read-out: Cell LXRβ IC50

T3 sequence (Q13133 209-447): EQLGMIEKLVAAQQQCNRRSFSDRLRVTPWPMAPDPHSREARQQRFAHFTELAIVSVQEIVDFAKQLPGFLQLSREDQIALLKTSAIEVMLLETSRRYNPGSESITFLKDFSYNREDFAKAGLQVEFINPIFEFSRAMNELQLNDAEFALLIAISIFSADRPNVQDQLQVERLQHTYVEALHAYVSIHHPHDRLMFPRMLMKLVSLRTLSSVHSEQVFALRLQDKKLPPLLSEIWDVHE
T1 sequence (Q13133 209-447): as above
T4 sequence (P55055 222-460 limits assumed): as the sequence (P55055 222-460 limits assumed) above

Row | Structure (SMILES) | Ki (LXR α LBD protein [1]) [nM] | Ki (LXR β LBD protein [2]) [nM] | EC50 [3] [nM] | EC50 [4] [nM] | Cell LXRα efficacy [5] | IC50 [5] [nM] | IC50 [6] [nM] | Cell LXRβ efficacy [6, 9] | EC50 ([3]; agonist mode) [nM] | IC50 [5, 9] [nM] | Cell LXRβ efficacy [6] | Cell LXRα efficacy [3] | Cell LXRβ efficacy ([4]; agonist mode) | other results
1 | Cc1ccc(C2CC2)nc1N1CCN(c2cccc(S(C)(=O)=O)c2)C[C@H]1C(C)C [40-3, (R)-1-(6-cyclopropyl-3-methylpyridin-2-yl)-2-isopropyl-4-(3-(methylsulfonyl)phenyl)piperazine] | 724 | 61 | > 20000 | > 20000 | 2454 (90) % | 2450 | 288 | 288 (88) % | – | – | – | – | – | –
2 | CCOC(=O)CN(C)C(=O)c1cnc(N2CCN(c3ccc(F)c(S(C)(=O)=O)c3)C[C@H]2C(C)C)nc1C(F)(F)F [17-16, ethyl (R)-N-(2-(4-(4-fluoro-3-(methylsulfonyl)phenyl)-2-isopropylpiperazin-1-yl)-4-(trifluoromethyl)pyrimidine-5-carbonyl)-N-methylglycinate] | 2170 | 194 | – | > 20000 | 1530 (99) % | – | 361 | – | > 20000 | 1530 | 361 (86) % | – | – | –
3 | CC(C)[C@@H]1CN(c2ccc(CO)c(S(C)(=O)=O)c2)CCN1c1ncc(C(N)=O)c(C(F)(F)F)n1 [Cpd No 17-25, (R)-2-(4-(4-(hydroxymethyl)-3-(methylsulfonyl)phenyl)-2-isopropylpiperazin-1-yl)-4-(trifluoromethyl)pyrimidine-5-carboxamide] | – | – | – | 46 | 3652 (98) % | – | 359 | 359 (99) % | 1130 | 3650 | – | 1127 (18) % | 46 (13) % | –
4 | CC(C)[C@@H]1CN(c2ccc(F)c(S(C)(=O)=O)c2)CCN1c1ncc(C(N)=O)c(C(F)(F)F)n1 [Cpd No 17-2, (R)-2-(4-(4-fluoro-3-(methylsulfonyl)phenyl)-2-isopropylpiperazin-1-yl)-4-(trifluoromethyl)pyrimidine-5-carboxamide] | 876 | 58 | – | 91 | 3715 (97) % | – | 439 | – | 1790 | 3720 | 439 (97) % | 1789 (17) % | – | Cell LXRβ efficacy [4]: 91 (10) %
5 | CC(C)[C@@H]1CN(c2ccc(F)c(S(C)(=O)=O)c2)CCN1c1ncc(Cc2ccc(C(C)(C)O)cc2)c(C(F)(F)F)n1 [Cpd No 31-1, (R)-2-(4-((2-(4-(4-fluoro-3-(methylsulfonyl)phenyl)-2-isopropylpiperazin-1-yl)-4-(trifluoromethyl)pyrimidin-5-yl)methyl)phenyl)propan-2-ol] | 159 | 18 | 2720 | > 20000 | 443 (98) % | 443 | 115 | 115 (124) % | – | – | – | 2718 (7) % | – | –
6 | CS(=O)(=O)c1cccc(N2CCN(C[C@H]3C[C@@H]4[C@H](C3)C4(F)F)[C@@H](c3ccccc3)C2)c1 [48-64, (S)-1-(((1R,3r,5S)-6,6-difluorobicyclo[3.1.0]hexan-3-yl)methyl)-4-(3-(methylsulfonyl)phenyl)-2-phenylpiperazine] | 397 | – | 1820 | – | 4272 (104) % | 4270 | – | 85% | – | – | – | 1817 (38) % | – | Ki (LXR β LBD protein [2]; Biological Test Example 1): 38 nM; Cell LXRβ efficacy [4, 10]: 11%; EC50 [4, 11]: 411 nM; IC50 [6, 12]: 288 nM
7 | Cc1ccc(N2CCN(c3cccc(S(C)(=O)=O)c3)C[C@H]2C(C)C)nc1C1CC1 [40-2, (R)-1-(6-cyclopropyl-5-methylpyridin-2-yl)-2-isopropyl-4-(3-(methylsulfonyl)phenyl)piperazine] | 173 | 14 | 3500 | > 20000 | 792 (80) % | 792 | 146 | – | – | – | 146 (93) % | 3505 (14) % | – | –
8 | CS(=O)(=O)c1cccc(N2CCN(C[C@H]3CC[C@]4(CC3)CC4(F)F)[C@@H](c3ccccc3)C2)c1 (single isomer, unassigned) [48-71] | 50 | – | 236 | – | – | > 10000 | – | 54% | – | – | – | 236 (57) % | – | Ki (LXR β LBD protein [2]; Biological Test Example 1): 10 nM; Cell LXRβ efficacy [4, 10]: 25%; EC50 [4, 11]: 75 nM; IC50 [6, 12]: 163 nM
9 | CC(C)[C@@H]1CN(c2ccc(F)c(S(C)(=O)=O)c2)CCN1c1ncc(CNS(C)(=O)=O)c(C(F)(F)F)n1 [15-7, (R)-N-((2-(4-(4-fluoro-3-(methylsulfonyl)phenyl)-2-isopropylpiperazin-1-yl)-4-(trifluoromethyl)pyrimidin-5-yl)methyl)methanesulfonamide] | 512 | 40 | 2320 | 198 | – | – | 1770 | 1773 (113) % | – | – | – | 2315 (23) % | 198 (18) % | –
10 | CC(C)[C@@H]1CN(c2cc(F)c(CO)c(S(C)(=O)=O)c2)CCN1c1ncc(CO)c(C(F)(F)F)n1 [Cpd No 11-6, (R)-(2-fluoro-4-(4-(5-(hydroxymethyl)-4-(trifluoromethyl)pyrimidin-2-yl)-3-isopropylpiperazin-1-yl)-6-(methylsulfonyl)phenyl)methanol] | 71 | 2 | – | 16 | – | – | 1360 | 1355 (65) % | 216 | 3860 | – | 216 (58) % | 16 (46) % | –
11 | CC(C)[C@@H]1CN(c2cc(F)c(CO)c(S(C)(=O)=O)c2)CCN1c1ncc(C(N)=O)c(C(F)(F)F)n1 [Cpd No 17-28, (R)-2-(4-(3-fluoro-4-(hydroxymethyl)-5-(methylsulfonyl)phenyl)-2-isopropylpiperazin-1-yl)-4-(trifluoromethyl)pyrimidine-5-carboxamide] | – | – | – | 20 | – | – | 182 | 182 (98) % | 913 | 2550 | – | 913 (9) % | 20 (9) % | –
12 | CCOC(=O)CCN(C)C(=O)c1cnc(N2CCN(c3ccc(F)c(S(C)(=O)=O)c3)C[C@H]2C(C)C)nc1C(F)(F)F [17-18, ethyl (R)-3-(2-(4-(4-fluoro-3-(methylsulfonyl)phenyl)-2-isopropylpiperazin-1-yl)-N-methyl-4-(trifluoromethyl)pyrimidine-5-carboxamido)propanoate] | – | 129 | – | > 20000 | 1159 (92) % | – | 186 | – | > 20000 | 1160 | 186 (98) % | – | – | –
13 | CC(C)[C@@H]1CN(c2ccc(F)c(S(C)(=O)=O)c2)CCN1c1ncc(C(=O)N2CCOCC2)c(C(F)(F)F)n1 [17-8, (R)-(2-(4-(4-fluoro-3-(methylsulfonyl)phenyl)-2-isopropylpiperazin-1-yl)-4-(trifluoromethyl)pyrimidin-5-yl)(morpholino)methanone] | – | 311 | – | > 20000 | – | – | 538 | 538 (91) % | > 20000 | 2280 | – | – | – | –
14 | CC(C)(O)[C@@H]1CN(c2cccc(S(C)(=O)=O)c2)CCN1c1nccc(C(F)(F)F)n1 [7-24, (S)-2-(4-(3-(methylsulfonyl)phenyl)-1-(4-(trifluoromethyl)pyrimidin-2-yl)piperazin-2-yl)propan-2-ol] | 1030 | 43 | 1590 | 275 | – | – | 9 | – | – | – | 9 (64) % | 1586 (50) % | – | Cell LXRβ efficacy [4]: 275 (37) %; EC50 (LXR α LBD protein [7]): 457 nM; FRET LXRα efficacy (LXR α LBD protein [7]): 83%; FRET LXRβ efficacy (LXR β LBD protein [8]): 14 (74) %; EC50 (LXR β LBD protein [8]; read-out: FRET LXRβ EC50): 14 nM
15 | COCCN(C)C(=O)c1cnc(N2CCN(c3ccc(F)c(S(C)(=O)=O)c3)C[C@H]2C(C)C)nc1C(F)(F)F [17-12, (R)-2-(4-(4-fluoro-3-(methylsulfonyl)phenyl)-2-isopropylpiperazin-1-yl)-N-(2-methoxyethyl)-N-methyl-4-(trifluoromethyl)pyrimidine-5-carboxamide] | – | 210 | > 20000 | > 20000 | – | 1140 | 295 | – | – | – | – | – | – | –
16 | CC(C)[C@@H]1CN(c2ccc(F)c(S(C)(=O)=O)c2)CCN1c1ncc(CN2CCOCC2)c(C(F)(F)F)n1 [Cpd No 15-5, (R)-4-((2-(4-(4-fluoro-3-(methylsulfonyl)phenyl)-2-isopropylpiperazin-1-yl)-4-(trifluoromethyl)pyrimidin-5-yl)methyl)morpholine] | – | 36 | – | 36 | – | – | 221 | 221 (105) % | 2590 | 1160 | – | 2592 (12) % | 36 (3) % | –
